We go through two molecules from US12508259B2, “Pharmaceutical formulations containing Nalbuphine” (Humanwell Pharmaceutical US, Inc., priority 2022, dated 2025).

Series [1] is described as follows: Nalbuphine solubility in different acids (overnight stirring, HPLC). The series is classed as physicochemical. The conditions noted are these: approx. 0.5 mmol/mL acid; for solubility: aqueous buffer, thermodynamic from solid, Nalbuphine base Solubility. The method, then: A preliminary assessment of Nalbuphine solubility in different acids was performed. After overnight continuous stirring, the suspensions were centrifuged, and supernatants were filtered through a 0.2 μm filter.

For series [2] the following is noted: commercially available Nalbuphine hydrochloride; cited from earlier work.

Converted amounts (≈) assume the structure as drawn. Counter-ions that a name gives are not always drawn. Like-named read-outs stand apart in the source and are kept apart here.

Broadly, the solubility is the concentration that dissolves in the medium under given conditions. `Oc1ccc2c3c1O[C@H]1[C@@H](O)CC[C@@]4(O)[C@@H](C2)N(CC2CCC2)CC[C@]314` [Nalbuphine base, N-cyclobutylmethyl-14-hydroxydihydronormorphine]: the solubility in series [1] (DL-malic acid solution, in DL-Malic acid) was 630 mM (≈ 225 mg/mL); in series [1] (acetic acid solution, in Acetic acid), 420 mM (≈ 150 mg/mL); in series [1] (citric acid solution, in Citric acid), > 1000 mM; in series [1] (hydrochloric acid solution, in Hydrochloride acid) it was 90 mM (≈ 32.2 mg/mL); in series [1] (lactic acid solution, in Lactic acid), 460 mM (≈ 164 mg/mL); in series [1] (phosphoric acid solution, in Phosphoric acid), 530 mM (≈ 189 mg/mL). Also, the solubility was 480 mM (≈ 172 mg/mL) in series [1] (succinic acid solution, in Succinic acid); > 1000 mM in series [1] (sulfuric acid solution, in Sulfuric acid); 930 mM (≈ 332 mg/mL) in series [1] (tartaric acid solution, in Tartaric acid). The results for the “Nalbuphine base Solubility” value in series [1] (in Citric acid) and in series [1] (in Sulfuric acid) were 1070 mM and ~1120 mM, respectively.

`Oc1ccc2c3c1O[C@H]1[C@@H](O)CC[C@@]4(O)[C@@H](C2)N(CC2CCC2)CC[C@]314` [Nalbuphine hydrochloride]: the solubility entry in series [2] is “approximately 30 mg/mL”.
